Patent US8940766B2, “Methods for preventing and/or treating lysosomal storage disorders” (Amicus Therapeutics, Inc., priority 2009, dated 2015)
Changes are numbered by the printed parent chain.

What was measured:
[1] = target: T1, recombinant human GCase (rhGCase; Cerezyme®) (Homo sapiens, UniProt P04062, R534H); test: In vitro enzyme inhibition assay of rhGCase with 4-MU-β-D-Glc fluorogenic substrate; assay type: biochemical; conditions: pH 5.2; average of three independent experiments
T1 construct: purchased Genzyme Corp
T1 sequence (P04062 40-536 R534H): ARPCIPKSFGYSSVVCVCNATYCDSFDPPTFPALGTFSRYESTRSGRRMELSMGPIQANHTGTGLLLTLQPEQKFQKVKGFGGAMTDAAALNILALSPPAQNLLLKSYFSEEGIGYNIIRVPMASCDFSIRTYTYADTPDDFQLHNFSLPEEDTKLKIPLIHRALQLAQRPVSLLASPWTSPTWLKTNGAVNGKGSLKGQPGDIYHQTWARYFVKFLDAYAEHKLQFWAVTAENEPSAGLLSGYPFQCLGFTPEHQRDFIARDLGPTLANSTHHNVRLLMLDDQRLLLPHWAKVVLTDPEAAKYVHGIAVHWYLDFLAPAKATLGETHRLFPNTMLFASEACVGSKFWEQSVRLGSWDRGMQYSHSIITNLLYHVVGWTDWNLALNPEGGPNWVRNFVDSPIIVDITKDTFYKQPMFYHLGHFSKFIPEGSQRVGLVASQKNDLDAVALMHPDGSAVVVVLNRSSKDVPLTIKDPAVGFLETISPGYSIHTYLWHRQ
Protocol: The binding affinity (defined here by Ki binding constant) of GCase for small molecule pharmacological chaperones described in this document were empirically determined using enzyme inhibition assays. In brief, the enzyme inhibition assays used monitored the ability of test compound to bind and prevent the hydrolysis of a fluorogenic substrate in a concentration-dependent manner. Specifically, the enzyme activity of recombinant human GCase (rhGCase; Cerezyme®, Genzyme Corp.) was measured using the 4-methylumbelliferyl-β-D-glucopyranoside (4-MU-β-D-Glc) fluorogenic substrate in the absence or in the presence of varying amounts of each test compound. […] The enzyme inhibition assays were performed at both pH 7.0 (endoplasmic reticulum pH) and at pH 5.2 (lysosomal pH) to gain insight into the binding affinity (i.e., potency) of compounds for GCase in the endoplasmic reticulum and lysososome.
Various concentrations of test compounds were prepared in buffer “M” consisting of 50 mM sodium phosphate buffer with 0.25% sodium taurocholate at pH 7.0 and pH 5.2. Enzyme (Cerezyme®, a recombinant form of the human enzyme β-glucocerebrosidase) was also diluted in the same buffer “M” at pH 7.0 and pH 5.2. […] Fluorescence was measured on a plate reader for 1 sec/well using 355 nm excitation and 460 nm emission.

lysosomal GCase = target: T2, lysosomal GCase (Homo sapiens, UniProt P04062); test: In situ washout assay in fibroblasts (recovery of lysosomal GCase activity after compound removal); assay type: cell-based; conditions: fibroblasts treated at IC90 for 16-24 hours, then drug-free medium; single exponential fit
T2 construct: assayed in situ using fibroblasts established from a normal subject; endogenous in cells; host or cells: fibroblasts from a normal subject
T2 sequence (P04062 40-536): T1 sequence (P04062 40-536 R534H) with H495R
Protocol: Cells seeded in 48-well plates were incubated with the indicated concentrations of compound for 16-24 hours. For the dose-response assays, cells were incubated with the in situ substrate 5-(pentafluorobenzoylamino)fluorescein di-β-D-glucopyranoside (PFBFDβGlu) for 1 hour and subsequently lysed to determine the extent of substrate hydrolysis in the presence of compound. […] Inhibition was determined as the ratio of activity in the presence of compound to that in the absence of compound. […] Cells were washed extensively and incubated in drug-free medium to allow net compound efflux from cells. Cells were then tested for lysosomal GCase activity at 2 hour intervals over a total period of 8 hours following compound removal. The increase in activity over time was fitted with a single exponential function to determine the compound's washout time.

GCase = target: T3, GCase (Homo sapiens, UniProt P04062); test: Concentration-dependent increase in GCase activity (EC50, Emax); assay type: cell-based; conditions: result in words
T3 sequence (P04062 40-536): T1 sequence (P04062 40-536 R534H) with H495R

[2] = Compound concentration in brain, spleen and plasma samples of GCase enhancement study; assay type: in vivo, mice (C57BL/6); conditions: nine doses
Protocol: The ability of orally administered test compounds (the hydrochloride salt form of Compound A and Compound B) to elevate GCase levels as compared to reference compound, IFG-tartrate, was assessed in mice. […] Seven animals were used per dose. The dosing solutions were prepared in water. Compounds were administered over 2 weeks as follows: week 1, Mon-Fri (On), Sat-Sun (Off); week 2, Mon-Thu (On); necropsy on Friday. Thus, a total of 9 doses (dosing solutions prepared fresh every day) were given to each mouse, with a 24-hour washout between the last dose and necropsy.
Plasma was collected by spinning blood at 2700 g for 10 minutes at 4° C. Liver, spleen, lung, and brain tissues were removed, washed in cold PBS, blotted dry, flash frozen on dry ice, and stored at −80° C. until analysis. GCase levels were measured by homogenizing approximately 50 mg tissue in 500 μL McIlvane (MI) buffer (100 mM sodium citrate, 200 mM sodium phosphate dibasic, 0.25% sodium taurocholate, and 0.1% Triton X-100, pH 5.2) at pH 5.2 for 3-5 seconds on ice with a micro homogenizer. Homogenates were then incubated at room temperature without and with 2.5 mM conduritol-B-epoxide (CBE) for 30 min. Finally, 3.7 mM 4-methylumbeliferryl-β-glucoside (4-MUG) substrate was added and incubated at 37° C. for 60 min. Reactions were stopped by addition of 0.4 M glycine, pH 10.6. Fluorescence was measured on a plate reader for 1 sec/well using 355 nm excitation and 460 nm emission. Total protein was determined in lysates using the MicroBCA kit according to the manufacturer's instructions. A 4-methylumbelliferone (4-MU) standard curve ranging from 1.0 nM to 50 μM was run in parallel for conversion of raw fluorescence data to absolute GCase activity (in the presence and absence of CBE) and expressed as nanomoles of 4-MU released per milligram of protein per hour (nmol/mg protein/hr). GCase levels and protein levels were calculated using Microsoft Excel (Redmond, Wash.) and GraphPad Prism version 4.02.

IC50 [1]: 73 ± 9 nM
In Situ Washout (lysosomal GCase): 2.9 ± 0.22 h
Concentration in GCase assays after dilution (value in parenthesis) ([2]; brain sample, 10 mg/kg p.o.): 0.9 nM
Concentration in GCase assays after dilution (value in parenthesis) ([2]; brain sample, 100 mg/kg p.o.): 7.6 nM
Concentration in GCase assays after dilution (value in parenthesis) ([2]; spleen sample, 10 mg/kg p.o.): 2.4 nM
Concentration in GCase assays after dilution (value in parenthesis) ([2]; spleen sample, 100 mg/kg p.o.): 8 nM
Compound: O[C@@H]1[C@@H](CCl)CNC[C@H]1O [Compound B, (3R,4R,5S)-5-(chloromethyl)piperidine-3,4-diol]
effect on GCase activity (GCase): concentration-dependent increase in GCase activity
enhancement of enzyme activity compared to IFG-tartrate (GCase): enhanced enzyme activity to the same maximum level at much lower concentration
